Data on four molecules can be found in publication PMC3827994, “Novel preclinical models of topical PrEP pharmacodynamics provide rationale for combination of drugs with complementary properties” (Retrovirology, 2013).

Structures can show the parent of a compound that is named as a salt.

Series [1] relates to HIV-1Ba-L. Put plainly: Co-culture model: drug-exposed human ectocervical explants washed, minced, co-cultured with JT-CCR5 cells, HIV-1Ba-L challenge. The format is cell-based. As for the experimental part:
(§1) Cervical tissue was collected from pre-menopausal women undergoing therapeutic hysterectomies at the Albert Einstein–Montefiore Weiler Hospital (Bronx, NY, USA) under an IRB exempt protocol. Ectocervical tissue was cut into explants of approximately 3×3×3 mm prior to 24 h exposure to panel of unformulated drugs in 24-well plates. Extracellular free drug was removed by immersing explants in phosphate buffered saline (PBS) containing Ca^2+ before mincing explants into fragments smaller than 1 mm, which were resuspended in 200 μL complete medium and co-cultured with JT-CCR5 cells (1×10^5 cells/well) in triplicate wells of round-bottomed 96-well plates. Co-cultures were incubated at 37°C for 72 h to allow released drug to be transferred from the tissue to T cells prior to challenge with HIV-1Ba-L (approximately 10^3 TCID50). The inoculum was removed and co-cultured tissue and cells washed thrice with medium. HIV replication was assessed by measuring p24 levels by ELISA (Figure 2a).

For series [2], the system named is HIV-1Ba-L. In words: JT-CCR5 cells challenged with HIV-1Ba-L in the presence of drug (p24 ELISA). It counts as cell-based. How it is done:
(§2) JT-CCR5 T cells in 24-well plates (1×10^6 cells/well) were exposed to varying concentrations of drugs diluted in complete medium for 24 h. The cells were then washed with 10 mL of medium, medium containing 10% human seminal plasma (SP), or not washed and then washed cells were resuspended in complete medium prior to transfer to round-bottomed 96-well plates and exposed to 10^3 TCID50 (50% tissue culture infective dose) HIV-1Ba-L for 2 h. Plates were centrifuged at 500 g for 5 min and supernatants were removed prior to each of 3 washing steps with 200 μL of medium. Cells were subsequently cultured in 200 μL complete medium and HIV replication was assessed 6 d post-infection by measuring p24 antigen by ELISA [34].
On the technique in general: In an ELISA, binding on a coated surface is turned into a signal by an enzyme label.

Series [3] has as its system HIV-1Ba-L. Put plainly: Intracellular drug retention: JT-CCR5 cells exposed to drug 24 h, washed with medium or 10% seminal plasma, then HIV-1Ba-L challenge. The format is cell-based. Particulars: for protection of washed cells at the highest concentrations tested: 10 and 100 μM, cells washed with medium or SP; for antiviral activity after washing cells with medium or SP prior to challenge: JT-CCR5, 24 h drug exposure, TDF at >= 0.1 μM. How it is done: as §2

The test system of another series is TZM-bl cells. In words: In vitro activity of IQP-0528 in TZM-bl cells. The format is cell-based. Particulars: not shown.
Series [4] concerns HIV-1Ba-L. In words: NHP cervical biopsies co-cultured with PHA-activated human PBMC, HIV-1Ba-L challenge (p24 ELISA). The format is cell-based. How it is done:
as §1
Proximal and distal biopsies were collected and placed in 200 μL of complete medium and shipped to the Herold laboratory at 4°C. Biopsies were minced without washing and co-cultured with activated human PBMC in the presence of culture medium used during transport. Challenge and assessment of HIV replication were performed as described for human cervical explant tissue (Figure 2a).

Series [5] deals with HIV-1Ba-L. Put plainly: Antiviral activity of macaque CVL in TZM-bl cells challenged with HIV-1Ba-L (luciferase). The format is cell-based. Conditions: CVL diluted 1:10 and 1:100, Days 7 and 14 post IVR insertion. As for the experimental part:
TZM-bl cells were plated at 3x10^4/well and allowed to adhere overnight before exposure to 10^3 TCID50 HIV-1Ba-L in the presence of CVL diluted 1:10 and 1:100 in complete DMEM in triplicate wells. Virus and drugs were left in culture for 48 h at 37°C and then removed by washing once with 200 μl PBS. Cells were lysed in 100 μl luciferase cell culture lysis reagent (Promega) and stored at -80°C until assessed for luciferase activity using luciferase assay buffer (Promega). Alternatively, TZM-bl cells were plated at 5x10^3/well in polyester transwell™ inserts with 1.0 μm pore size (Corning) and exposed basolaterally to CVL diluted 1:20 in complete DMEM overnight before apical challenge with the CCR5-tropic subtype C HIV isolate 97USNG30 (0, 10 and 100 TCID50). Wells with luciferase activity above background average + 2 standard deviations (cells exposed to CVL but no virus) were considered positive. To avoid contamination, frozen CVL was Gamma-irradiated on dry ice (1KGy) prior to use.

The conditions of series [6]: pig, in vivo.
Protocol: A 14-day IQP-0528 IVR biodistribution study using pigtail macaque monkeys was performed following protocols approved by the CDC Institutional Animal Care and Use Committee according to the Guide for the Care and Use of Laboratory Animals as previously described [36]. Briefly, animals were anesthetized with ketamine (3-10 mg/kg) prior to all collection procedures. A total of six macaques were used with two animals receiving placebo IVR and four animals receiving IQP-0528 (10% w/w) IVR. A pediatric speculum and forceps were used to insert IVRs in the posterior vagina proximal to the ectocervix on day 0 and left in place for 14 days. Tissue samples were collected with biopsy forceps (Miltex Townsend # 30–1445) near the vaginal introitus (distal to the ring) and the ectocervix (proximal to the ring) and shipped at 4°C to the Herold laboratory overnight. CVL samples were obtained by washing the vaginal vault with 5 mL normal saline; CVL samples were divided into aliquots, shipped and stored at -80°C.
IQP-0528 in biological samples was extracted and analyzed using LC-MS/MS at the Center for Human Toxicology (Utah). The lower limit of quantification (LLOQ) for this assay was 1 ng/mL of matrix. To convert weight/weight concentrations of IQP-0528 (nanograms IQP-0528 per milligram of vaginal fluid or tissue) to molarity (μM), vaginal fluid and tissue densities of 1.0 g/mL were assumed.
In series [7] the test system is HIV-1Ba-L. In words: Parallel antiviral experiments with MVC in human PBMCs. It counts as cell-based. Particulars: PHA-activated PBMCs; data not shown.
The next series deals with HIV. Details: method as in PMID 16251317. Conditions: drug present throughout the experiment ref 25; cited from earlier work.
Setting [8] is: Human immunodeficiency virus 1; drug concentration during 24 h explant exposure; means ± SEM; read-out: Co-culture JT-CCR5 & explant tissue IC50.
Where [9] appears, read: Human immunodeficiency virus 1; drug concentration during 24 h explant exposure; means ± SEM; read-out: Co-culture JT-CCR5 & explant tissue IC90.
The mark [10] stands for this setting: explant treated ex vivo, washed, co-cultured with JT-CCR5.
[11] abbreviates: Human immunodeficiency virus 1, 144 h; challenge in the presence of drug; means ± SEM; read-out: JT-CCR5 Infection IC50.
The mark [12] stands for this setting: Human immunodeficiency virus 1, 144 h; challenge in the presence of drug; means ± SEM; read-out: JT-CCR5 Infection IC90.
Setting [13] is: macaques with 10% w/w IQP-0528 IVR, co-culture with human PBMC.

In general, IC50 refers to the concentration that gives 50% inhibition. The term IC90 denotes the concentration at which the effect reaches the 90% level. For orientation: inhibition means the drop in the measured response relative to a control, in per cent. On to `Cc1cc(C)c(Nc2ccnc(Nc3ccc(C#N)cc3)n2)c(C)c1` [DPV, Dapivirine], for which the IC50 came out at 400 ± 200 nM with HIV-1Ba-L [1] (setting [8]) and 10 ± 10 nM in the series on HIV-1Ba-L [2] (setting [11]). Moreover, the 90% effect concentration (IC90) turned out to be 1100 ± 300 nM in the series on HIV-1Ba-L [1] (setting [9]) and 30 ± 20 nM in the series with HIV-1Ba-L [2] (setting [12]). Further, the “protection of co-cultured T cells by pretreated explant tissue” value (“protection of co-cultured T cells” for short) with HIV-1Ba-L [1] (setting [10]) is “significant protection”. Further, in the series on HIV-1Ba-L [3] (1 μM, cells washed with SP prior to HIV challenge), the “HIV inhibition” value is reported as “failed to inhibit HIV infection”. For the same molecule, the inhibition at 1 µM with HIV-1Ba-L [3] (Human immunodeficiency virus 1, 1 μM, cells washed with medium alone, mean ± SEM, read-out: protection (HIV inhibition)) came out at 73.9 ± 13.8%.

For the molecule `Cc1cc(C)cc(C(=O)c2c(C(C)C)c(=O)[nH]c(=O)n2CC2CC2)c1` [IQP-0528], in the series on TZM-bl cells, the “in vitro IC90 in TZM-bl cells” value is 2.7 ng/mL. In addition, the half-inhibitory concentration (IC50) in the series on HIV-1Ba-L [1] (drug concentration during 24 h explant exposure; means ± SEM; read-out: Co-culture JT-CCR5 & explant tissue IC50) turned out to be 2900 ± 700 nM. The IC90 in the series with HIV-1Ba-L [1] (drug concentration during 24 h explant exposure; means ± SEM; read-out: Co-culture JT-CCR5 & explant tissue IC90) was 10100 ± 700 nM. Besides, the “protection of co-cultured T cells” value with HIV-1Ba-L [1] (setting [10]) is listed as “significant protection”. The “protection in co-culture, fresh tissue vs tissue stored at -80°C” value with HIV-1Ba-L [1] (tissue fresh or frozen 24 h or 7 days after drug treatment) is “protective under all of these conditions”. Moreover, the IC50 in the series on HIV-1Ba-L [2] (challenge in the presence of drug; means ± SEM; read-out: JT-CCR5 Infection IC50) was determined as 190 ± 70 nM. In addition, in the series on HIV-1Ba-L [2] (challenge in the presence of drug; means ± SEM; read-out: JT-CCR5 Infection IC90), the IC90 worked out at 430 ± 160 nM. Also, the “protection of washed cells at the highest concentrations tested” value with HIV-1Ba-L [3] was “neither IQP-0528 or MVC completely protected the cells from infection”. Besides, in the series with HIV-1Ba-L [4] (setting [13]), the “viral inhibition, distal biopsies, day 7” value is 42.3%; the “viral inhibition, distal biopsies, day 14” value turned out to be 59.2%; the “viral inhibition, proximal biopsies, day 7” value came to 53.0%; the “viral inhibition, proximal biopsies, day 14” value was 71.7%. Moreover, the “viral inhibition, biopsies of ring-treated macaques (range)” value with HIV-1Ba-L [4] (proximal and distal biopsies, days 7 and 14) is 42-72%. The “protection of TZM-bl cells challenged in the presence of CVL” value in the series on HIV-1Ba-L [5] is given as “significantly protected from infection”. Moreover, in series [6], the “IQP-0528 concentration in CVL, D7, Mean ± SEM” value turned out to be 1360 ± 249 µg/mL; the “IQP-0528 concentration in CVL, D14, Mean ± SEM” value came to 940 ± 250 µg/mL; the “IQP-0528 concentration in cervical tissue, Distal D7, Mean ± SEM” value is listed as 0.85 ± 0.23 ng/mg of tissue; the “IQP-0528 concentration in cervical tissue, Distal D14, Mean ± SEM” value is recorded as 14.65 ± 6.35 ng/mg of tissue. Besides, in series [6], the “IQP-0528 concentration in cervical tissue, Proximal D7, Mean ± SEM” value is listed as 3.36 ± 1.36 ng/mg of tissue and the “IQP-0528 concentration in cervical tissue, Proximal D14, Mean ± SEM” value is given as 28.08 ± 5.39 ng/mg of tissue.

Turning to `CC(C)OC(=O)OCOP(=O)(CO[C@H](C)Cn1cnc2c(N)ncnc21)OCOC(=O)OC(C)C` [TDF, Tenofovir disoproxil fumarate], the IC50 in the series with HIV-1Ba-L [1] (setting [8]) was above 10000 nM; in the series with HIV-1Ba-L [2] (setting [11]), 40 ± 10 nM. The values for the IC90 with HIV-1Ba-L [1] (setting [9]) and with HIV-1Ba-L [2] (setting [12]) were above 10000 nM and 130 ± 20 nM, respectively. The “protection of co-cultured T cells” value in the series on HIV-1Ba-L [1] (setting [10]) is on record as “not protected from viral infection”. Further, the “antiviral activity after washing cells with medium or SP prior to challenge” value in the series on HIV-1Ba-L [3] is on record as “retained its antiviral activity”.

Regarding Maraviroc [MVC], the “antiviral activity in human PBMCs compared to JT-CCR5 cells” value with HIV-1Ba-L [7] is on record as “no difference in the antiviral activity”. In the series on HIV-1Ba-L [1] (setting [10]), the “protection of co-cultured T cells” value is “failed to protect co-cultured T cells”. Further, the IC50 in the series with HIV-1Ba-L [1] (read-out: Co-culture JT-CCR5 & explant tissue IC50; drug concentration during 24 h explant exposure; means ± SEM) is above 100000 nM; in the series with HIV-1Ba-L [2] (read-out: JT-CCR5 Infection IC50; challenge in the presence of drug; means ± SEM), 1980 ± 850 nM. Also, the IC90 is above 100000 nM with HIV-1Ba-L [1] (read-out: Co-culture JT-CCR5 & explant tissue IC90; drug concentration during 24 h explant exposure; means ± SEM) and 54500 ± 13800 nM in the series with HIV-1Ba-L [2] (read-out: JT-CCR5 Infection IC90; challenge in the presence of drug; means ± SEM). Also, the “antiviral activity” value in the series on HIV-1Ba-L [2] (cells washed 2 h after viral inoculation, drug not re-added) was “only active in the low μM range”; in the series with HIV, “low nanomolar range”. Besides, in the series on HIV-1Ba-L [3], the “protection of washed cells at the highest concentrations tested” value is listed as “neither IQP-0528 or MVC completely protected the cells from infection”. Further, the “antiviral activity after washing cells with medium or SP prior to challenge” value in the series with HIV-1Ba-L [3] is “significantly reduced”.
